The text below walks through data of PMC3684770 (Free Radical Biology & Medicine, 2013).

Data set [1] can be described thus: Pharmacokinetic analysis in C57Bl/6 mice. The class given is in vivo, mouse. The conditions noted are these: 1 mg/kg. The method, then: Pharmacokinetic studies were performed by Pharmidex (London, UK). […] All concentrations were calculated with reference to the relevant standard curve. An extraction buffer (EB) solution of acetonitrile with 0.1% formic acid (Fisher Scientific, HPLC grade) and 500 ng/ml of propranolol as the internal standard (IS) was used for in all extraction protocols.

For data set [2], the system named is primary fibroblasts from ALS patients. The data set is described as follows: Oxidative stress assay in ALS patient and control fibroblasts. The class given is cell-based, human. The conditions noted are these: 3.7 or 0.41 µM, 24 h. As to the method: Fibroblasts were obtained from human controls (n=3) and ALS patients with I113T SOD1 mutations (n=3) and sporadic ALS patients (n=2). […] The cells were incubated at 37 °C/5% CO2 overnight. The following day the media were removed and the cells were washed with 200 µl 1XP BS. Phenol red-free DMEM/F12 media (Sigma D6434) was added in the presence of 10% serum/2 mM Gln (++), 10% serum/0 mM Gln (+−), or 0% serum/0 mM Gln (−−). Cells were incubated at 37 °C/5% CO2 for 5 h.
Carboxy-H2DCFDA fluorescence was normalised to live cell number (total EthD1 signal after freeze/thaw – EthD1 signal after assay) to compare between the different cell lines. Data were analysed by one-way ANOVA with Bonferroni post tests using GraphPad Prism
DMEM/F12 (50 µl) media were added in the presence of 10% serum/0 mM Gln (+−) and the cells were incubated at 37 °C and 5% CO2 for 5 h.
The data were tested for normality and analysed by one-way ANOVA using GraphPad Prism.

The conditions of data set [3]: mouse ref 73; cited from earlier work.
The conditions of data set [4]: cited from earlier work.
Data set [5] deals with Nrf2-ARE pathway. The data set is described as follows: ARE reporter assay in CHO 4xARE-TK-GFP cells (Spectrum library hits). A general note: Reporter assays use an easily measured gene product as a stand-in for the process of interest.
The subject of data set [6] is Nrf2-ARE pathway. The data set is described as follows: ARE reporter assay in C6 astrocyte cell line (C6-ARE). The class given is cell-based, rat. The conditions noted are these: C6-ARE, highest dose. From the text: Chinese hamster ovary (CHO), NSC34 mouse motor neuronal cells […] The ARE-TK-GFP and TK-GFP reporter constructs were a kind gift from William E. Fahl McArdle Laboratory for Cancer Research, University of Wisconsin. […] The NSC34 cell lines stably expressing G93A mutant hSOD1 have been described previously. […] Mouse embryonic fibroblasts were generated and maintained as described previously.

Data set [7] has as its target D4 receptors. The conditions noted are these: read-out: Ki D4 receptors; cited from earlier work.
In data set [8] the target is D1 receptors. Particulars: read-out: Ki D1 receptors; cited from earlier work.
For data set [9], the system named is C6 astrocyte cell line. Kind of data set: C6 oxidative stress assay (serum withdrawal, DCF).
Experimental: (§1) Media were then replaced with serum-free, phenol-free media for 5 h.
The subject of data set [10] is NSC34 cells. Kind of data set: NSC34 oxidative stress assay (serum withdrawal, DCF).
Experimental: as §1
For data set [11], the system named is 1321N1 astrocyte cell line. Kind of data set: 1321N1 oxidative stress assay (serum withdrawal, DCF).
Experimental: as §1
[12] abbreviates: minimum dose at which toxicity was observed.

Where a name gives a salt, the structure may show the parent alone.

As usually defined, the Kp is tissue or fluid exposure divided by exposure in the circulation. Broadly, the clearance is the rate of elimination divided by the concentration. Low values mean inefficient removal, high ones efficient removal. The EC50 is the concentration needed to bring the measured effect to its halfway point. As a reminder, the Ki is the equilibrium dissociation constant of an inhibitor or competing ligand from its target. The IC50 is the concentration at which inhibition is half-maximal.

As for `CN1CCc2cccc3c2[C@H]1Cc1ccc(O)c(O)c1-3` [apomorphine], the Kp in data set [1] (C57Bl/6, mouse, brain / plasma, intravenous, read-out: brain:plasma (Kp)) is 2.1. The clearance in data set [1] (C57Bl/6, plasma, mouse, iv) stood at 109 mL/min/kg. In [2], the “cell number compared to DMSO control” value was “no effect on cell number”. Moreover, the “plasma protein binding fraction (unbound)” value in data set [3] is reported as 0.222. Also, the “fraction absorbed following subcutaneous dosing” value in data set [4] (humans ref 75) was 1. Also, in [4] (humans ref 76), the “Tmax following subcutaneous dosing” value was 8 to 16 min.
As to `CN1CCc2cccc3c2[C@H]1Cc1ccc(O)c(O)c1-3` [Apomorphine hydrochloride, reference compound], in [5] (Cricetulus griseus), the concentration for a half-maximal effect (EC50) worked out at 25900 nM. Further, in [5] (lowest dose at which a reduction in GFP fluorescence was observed), the Toxic dose stood at 100 µM. The same compound had a dose showing toxicity in data set [6] of 30 µM. Moreover, the Ki is 4.4 nM in data set [7] and 370 nM in data set [8]. Also, the Emax in [9] (Rattus norvegicus, Astrocyte, 24 h, read-out: C6 oxidative stress assay Max reduction) amounted to 62%; in data set [10] (Mus musculus, NSC-34, 24 h, read-out: NSC34 oxidative stress assay Max reduction), 25%; in [11] (Homo sapiens, 1321-N1, 24 h, read-out: 1321N1 oxidative stress assay Max reduction), 79%. In addition, the concentration for half-maximal inhibition (IC50) in data set [9] (Rattus norvegicus, Astrocyte, read-out: C6 oxidative stress assay IC50) is 1690 nM; in data set [10] (Mus musculus, NSC-34, read-out: NSC34 oxidative stress assay IC50), 174 nM; in [11] (Homo sapiens, 1321-N1, read-out: 1321N1 oxidative stress assay IC50), 1700 nM. Besides, in data set [9] (setting [12]), the “C6 oxidative stress assay Toxic dose” value is recorded as “None”. The “NSC34 oxidative stress assay Toxic dose” value in [10] (setting [12]) was determined as 10 µM. Further, the “1321N1 oxidative stress assay Toxic dose” value in data set [11] (setting [12]) was “None”.
